Source: patent US11707516B2, “Method for producing artificial recombinant rotavirus” (Osaka University, priority 2016, dated 2023)

System: luciferase-expressing artificial recombinant rotavirus
Test: Screening test for anti-rotavirus drug using luciferase-expressing rotavirus in CV-1 cells (luminescence)
Type: cell-based, simian rotavirus
Method: CV-1 cells were seeded on 96-well culture plates at 1×10^5 cells/well on the previous day of infection. The CV-1 cells were infected with wild-type SA11 or the luciferase-expressing artificial recombinant rotavirus produced in Example 4 at an MOI of 0.001. After viral adsorption at 37° C. for 1 hour, the culture supernatant was removed, and DMEM (without FBS and with 0.5 μg/mL trypsin) containing 0, 1, 5, 10, 50, 100 or 200 μM ribavirin (Sigma-Aldrich) was added. Incubation was performed at 37° C. for 14 hours. After that, the substrate stock solution of Nano-Glo Luciferase Assay System (trade name, Promega) was added to the culture medium, and luminescence was detected with an in vivo imaging system (IVIS Spectrum, manufactured by Xenogen).

SMILES: NC(=O)c1ncn([C@@H]2O[C@H](CO)[C@@H](O)[C@H]2O)n1 [ribavirin]
- luminescence intensity (viral proliferation inhibitory effect) (MOI of 0.001, 0, 1, 5, 10, 50, 100 or 200 μM ribavirin, 14 hours): decreased in a ribavirin concentration-dependent manner
- ribavirin concentration at which no luminescence was observed (MOI of 0.001, 14 hours): ≥ 50 µM
